Source: paper PMC11601558, “SLC6A19 inhibition facilitates urinary neutral amino acid excretion and lowers plasma phenylalanine” (JCI Insight, 2024)
“And” between values parts separate entries of the source, which are not always exact repeats. Identical values can stand only once. Like-named read-outs stand apart in the source and are kept apart here. One block for each molecule: values may come before it.

Molecular target: T1, mouse SLC6A19 (Mus musculus, UniProt Q9D687)
T1 construct: expressed in transfected cells
T1 sequence (Q9D687 1-634): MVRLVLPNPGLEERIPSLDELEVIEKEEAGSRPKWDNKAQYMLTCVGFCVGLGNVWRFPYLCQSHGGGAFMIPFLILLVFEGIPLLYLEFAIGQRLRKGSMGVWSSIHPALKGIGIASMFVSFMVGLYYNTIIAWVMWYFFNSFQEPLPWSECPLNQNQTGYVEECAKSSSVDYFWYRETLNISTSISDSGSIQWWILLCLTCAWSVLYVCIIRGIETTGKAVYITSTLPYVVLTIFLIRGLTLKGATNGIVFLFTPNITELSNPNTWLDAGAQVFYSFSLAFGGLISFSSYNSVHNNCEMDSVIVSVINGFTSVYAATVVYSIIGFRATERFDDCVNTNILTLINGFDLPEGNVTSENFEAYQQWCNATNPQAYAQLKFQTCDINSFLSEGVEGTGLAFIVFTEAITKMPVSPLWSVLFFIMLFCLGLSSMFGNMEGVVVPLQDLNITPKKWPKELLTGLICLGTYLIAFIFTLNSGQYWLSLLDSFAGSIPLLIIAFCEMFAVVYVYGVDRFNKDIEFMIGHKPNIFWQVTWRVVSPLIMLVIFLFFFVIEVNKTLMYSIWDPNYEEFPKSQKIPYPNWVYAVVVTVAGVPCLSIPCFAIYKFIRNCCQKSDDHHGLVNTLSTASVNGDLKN
T1 sequence (Q9ESG4 15-222 partner): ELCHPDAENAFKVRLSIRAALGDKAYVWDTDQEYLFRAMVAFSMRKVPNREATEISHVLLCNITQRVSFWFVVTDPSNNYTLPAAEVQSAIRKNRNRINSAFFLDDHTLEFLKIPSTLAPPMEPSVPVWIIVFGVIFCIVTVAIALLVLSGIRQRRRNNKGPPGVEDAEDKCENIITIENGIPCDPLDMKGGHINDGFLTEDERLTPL
Assay: Isoleucine transport assay, Flp-In T-REx 293 cells coexpressing mouse SLC6A19 and TMEM27
Assay type: cell-based
Conditions: for isoleucine transport, Mouse (Fig 1f curve point) / isoleucine transport, Mouse (Fig 1c curve point): technical replicates; for IC50: read-out: IC50 against mouse SLC6A19, isoleucine transport assay
Protocol: Flp-In T-REx 293 cells (Thermo Fisher Scientific) were engineered to coexpress C-terminally V5-tagged human or mouse SLC6A19 under the control of a tetracycline-inducible promoter and human or mouse myc-DDK-tagged TMEM27 under the control of a constitutively active promoter. Cells were maintained in DMEM/F12 medium supplemented with 10% FBS, 100 units/mL penicillin, 100 μg/mL streptomycin, 200 μg/mL hygromycin, 10 μg/mL blasticidin, and 300 μg/mL geneticin (all from Thermo Fisher Scientific) at 37°C and 5% CO2.
Flp-In T-REx 293 cells stably coexpressing human or mouse SLC6A19 and TMEM27 were plated in 384-well plates in the presence of 1 μg/mL tetracyclin (Sigma-Aldrich) to induce the expression of SLC6A19. After 24 hours, cells were washed with live cell imaging solution (LCIS, Thermo Fisher Scientific) before JN-170 or JNT-517 were added to cells in 10-point concentration response curves in 0.5% DMSO in Krebs buffer (140 mM NaCl, 4.7 mM KCl, 2.5 mM CaCl2, 1.2 mM MgCl2, 11 mM HEPES, 10 mM glucose, pH 7.4). Cells were incubated with compounds for 1 hour at room temperature before 1 mM ^13C6,^15N1-labeled L-isoleucine (Cambridge Isotope Laboratories) was added as a transport substrate. After 20 minutes incubation at room temperature, cells were washed and lysed in H2O with 15 μM internal standard D-Leucine-D10 (CDN Isotopes) for 1–2 hours. A standard curve of ^13C6,^15N1-L-isoleucine was added to each plate following cell lysis. Plates were centrifuged at 3,700g to remove cell debris, and supernatant was diluted in 2 steps to a final 1:10 dilution in acetonitrile/0.1% formic acid. Sample desalting was performed on a high throughput RapidFire-365 (Agilent) using a hydrophilic interaction liquid chromatography (HILIC) column. A quantitative time-of-flight (Q-ToF) mass spectrometer (Agilent) was used to detect analytes. Agilent MassHunter quantitative analysis for time of flight was used as the integration software for measuring area under the peak for both ^13C6,^15N1-L-isoleucine and D-Leucine-D10 internal standard.
IC50 values for transport inhibition in cells overexpressing SLC6A19 and TMEM27 were calculated using a 4-parameter logistic regression in Collaborative Drug Discovery (CDD). Reported IC50 values are geometric means of 4–6 independent experiments. For postmortem intestinal transport assays, single outliers of quadruplicate replicates were excluded from the calculation if a signal value’s distance to the mean exceeded 35% of the signal average. The IC50 values of individual experiments were calculated with a 3- or 4-parameter logistic regression using GraphPad Prism 9. The reported IC50 value represents the geometric mean of n = 5 experiments from 3 individual donors. Statistical comparison of urinary Phe excretion in Pah^enu2 mice treated with vehicle or JN-170 was conducted using 1-way analysis of variance (ANOVA) with Tukey’s post hoc comparison. Statistical analysis of baseline-adjusted plasma Phe in mice treated with vehicle or JN-170 was determined by 2-way ANOVA with Dunnett’s post hoc comparison. All statistical analyses were performed using GraphPad Prism 9. For clinical studies, group sizes were not determined based on statistical power calculations. Statistical significance of pharmacodynamic results was not assessed. Values are reported as mean (urinary Phe excretion, T1/2, Cl/F), geometric mean (Cmax/D, AUC0-inf/D), or median (Tmax).

- isoleucine transport, Mouse (Fig 1f curve point) (0.000722 uM): 84.1 and 94.9
- isoleucine transport, Mouse (Fig 1f curve point) (0.00219 uM): 91.4 and 88.7
- isoleucine transport, Mouse (Fig 1f curve point) (0.00438 uM): 84.6 and 91.9
- isoleucine transport, Mouse (Fig 1f curve point) (0.015313 uM): 82.4 and 86.6
- isoleucine transport, Mouse (Fig 1f curve point) (0.048125 uM): 65.9 and 67.7
- isoleucine transport, Mouse (Fig 1f curve point) (0.144375 uM): 32.3 and 28.6
- isoleucine transport, Mouse (Fig 1f curve point) (0.4375 uM): 14.6 and 12.2
- isoleucine transport, Mouse (Fig 1f curve point) (1.3125 uM): -0.346 and -1.17
- isoleucine transport, Mouse (Fig 1f curve point) (3.9375 uM): -4.28 and -6.91
- isoleucine transport, Mouse (Fig 1f curve point) (11.8125 uM): -7.48 and -5.64
- IC50 (geometric mean n = 6): 97 nM
Structure (SMILES): N#Cc1ccc(-c2noc([C@]3(C(F)(F)F)CCN(C(=O)NCCC4(N)CC4)C3)n2)cc1 [JN-170]

Structure (SMILES): NC(=O)N1CCC[C@@H](N(C(=O)NCc2ccc(OC(F)(F)F)cc2F)C2CC2)C1 [JNT-517]
- isoleucine transport, Mouse (Fig 1c curve point) (0.000722 uM): 87.6 and 103
- isoleucine transport, Mouse (Fig 1c curve point) (0.00219 uM): 108 and 105
- isoleucine transport, Mouse (Fig 1c curve point) (0.00438 uM): 100 and 89.5
- isoleucine transport, Mouse (Fig 1c curve point) (0.0153125 uM): 85.6 and 104
- isoleucine transport, Mouse (Fig 1c curve point) (0.048125 uM): 88.3 and 96.6
- isoleucine transport, Mouse (Fig 1c curve point) (0.144375 uM): 78.2 and 95.8
- isoleucine transport, Mouse (Fig 1c curve point) (0.4375 uM): 86.6 and 108
- isoleucine transport, Mouse (Fig 1c curve point) (1.3125 uM): 93.2 and 97.6
- isoleucine transport, Mouse (Fig 1c curve point) (3.9375 uM): 89 and 86.1
- isoleucine transport, Mouse (Fig 1c curve point) (11.8125 uM): 86 and 88.2
- IC50: > 11800 nM
